We go through one compound from patent US20130302470A1, “L-amino-acid-containing feed additive in the form of fermentation-broth-based granules, and processes for its preparation” (EVONIK INDUSTRIES AG, priority 2012, published 2013).

The test system of one series is rainbow trout. Conditions: aquafeed with different lysine concentrations, FIG. 8; cited from earlier work.
A short description of series [1]: Hydrothermal stability, Experiment 9.2: pelleted aquafeed (lysine recovery). Conditions: pelleting process. It is filed as physicochemical. An excerpt: (§1) So as to be able to assess what is known as the hydrothermal stability of the additives, and to compare them with each other, the production processes for producing pelleted and extruded aquafeed was reproduced on a small scale. In each case two feed blends which differ only in respect of the L-lysine additive were employed, mixture A being supplemented with 0.50% granular feed additive according to the present invention and mixture B with 0.32% Lys×HCl, which corresponded in each case to identical lysine base concentrations. The granular feed additive according to the invention contained 50.7% by weight of lysine in the form of lysine sulphate and 10% by weight of biomass.
The process parameters, such as, for example, residence time, temperature or water content, were set at values which are typically used in practice. During the experiments, samples of the feed blend were taken after the respective individual process steps and subjected to extensive amino acid analysis. The hydrothermal stabilities of the test additives upon processing in the processes in question can be assessed relative to one another via the recovery rates.
The feed blends corresponded to representative state-of-the-art formulas. […]
In the amino acid determination, the supplemented amino acid lysine was determined. […] Thereafter, the amino acids were subjected to photometric quantitation at 570 nm. […]

Series [2] is described as follows: Hydrothermal stability, Experiment 9.1: extruded aquafeed (lysine recovery). It is filed as physicochemical.
Excerpt: as §1
The process parameters, such as, for example, residence time, temperature or water content, were set at values which are typically used in practice. […] The hydrothermal stabilities of the test additives upon processing in the processes in question can be assessed relative to one another via the recovery rates. […]
The hydrothermal stability of the granules according to the present invention was compared with the hydrothermal stability of Lys×HCl. The hydrothermal stability of the additives for extruded shrimp/prawn feed was examined and assessed during the entire respective process. […]
In the amino acid determination, the supplemented amino acid lysine was determined. […]

As to `Cl.NCCCC[C@H](N)C(=O)O` [lysine HCl, L-lysine monohydrochloride], the “Effect of the nature of the lysine source on the weight increase of trout” value in the series with rainbow trout was “no effect on the weight increase”. Also, the “Lysine loss upon pelleting” value in series [1] is given as “approximately 3.3%”. Moreover, in series [2] (extrusion process), the “Lysine lost during the processing to give shrimp/prawn feed” value was determined as 8.6%. The “Stability of the lysine in the shrimp/prawn feed production process (comparison)” value in series [2] (extrusion, lysine sulphate granules versus lysine HCl) was “markedly more unstable”.
